Results reported in patent US20170360791A1, “PHARMACEUTICAL COMPOSITIONS FOR INCREASING THE BIOAVAILABILITY OF POORLY SOLUBLE DRUGS” (ASTEX PHARMACEUTICALS, INC., priority 2014, published 2017).
Where a name gives a salt, the structure may show the parent alone. Read-outs that look alike come from different tables or passages of the source.

Key:
[1] = type: physicochemical
Experimental: The suspensions were filtered through 0.2 or 0.45 microm filters prior to HPLC analysis. Some filtrates were diluted with MeOH prior to the HPLC analysis.

[2] = MP470.HCl in T/C with or without Soluplus in SIF; type: physicochemical; details: Soluplus (12.3%) added to MP470.HCl in T/C, versus control without Soluplus; SIF 37° C., 1 mg/mL MP470 (total); FIG. 4
Experimental: A sample of the formulation was mixed with SIF solution pre-warmed at 37° C. to make a 1 mg/mL MP470 (total) mix.

With `S=C(NCc1ccc2c(c1)OCO2)N1CCN(c2ncnc3c2oc2ccccc23)CC1` [MP470.HCl, amuvatinib HCl] the solubility ([1]; Capryol 90, oil or lipid, thermodynamic from solid, solvent Capryol 90, room temperature, >24 hours, read-out: Solubility) was 100 µg/mL, the solubility ([1]; Cremophor EL, organic solvent or mixture, thermodynamic from solid, solvent Cremophor EL, room temperature, >24 hours, read-out: Solubility) was 7000 µg/mL and the solubility ([1]; DMF, organic solvent or mixture, thermodynamic from solid, solvent DMF, room temperature, >24 hours, read-out: Solubility) was 10000 µg/mL. For the same compound, the solubility ([1]; Labrafac CC, oil or lipid, thermodynamic from solid, solvent Labrafac CC, room temperature, >24 hours, read-out: Solubility) was 50 µg/mL, the solubility ([1]; Labrafil M1944CS, oil or lipid, thermodynamic from solid, solvent Labrafil M1944CS, room temperature, >24 hours, read-out: Solubility) was 300 µg/mL and the solubility ([1]; Lauroglycol 90, oil or lipid, thermodynamic from solid, solvent Lauroglycol 90, room temperature, >24 hours, read-out: Solubility) was 60 µg/mL. For the same compound, the solubility ([1]; Maisine 35-1, oil or lipid, thermodynamic from solid, solvent Maisine 35-1, room temperature, >24 hours, read-out: Solubility) was 1400 µg/mL, the solubility ([1]; Miglyol 812N, oil or lipid, thermodynamic from solid, solvent Miglyol 812N, room temperature, >24 hours, read-out: Solubility) was 30 µg/mL and the solubility ([1]; Miglyol 829, oil or lipid, thermodynamic from solid, solvent Miglyol 829, room temperature, >24 hours, read-out: Solubility) was 100 µg/mL. The solubility ([1]; Miglyol 840, oil or lipid, thermodynamic from solid, solvent Miglyol 840, room temperature, >24 hours, read-out: Solubility) was 40 µg/mL, the solubility ([1]; Peceol, oil or lipid, thermodynamic from solid, solvent Peceol, room temperature, >24 hours, read-out: Solubility) was 200 µg/mL and the solubility ([1]; Solutol HS 15, aqueous with cosolvent or surfactant or cyclodextrin, thermodynamic from solid, solvent Solutol HS 15, estimated by diluting the mixture in water 1/100 and then assaying the dilution, read-out: Solubility) was 6000 µg/mL. For the same compound, the solubility ([1]; TPGS, aqueous with cosolvent or surfactant or cyclodextrin, thermodynamic from solid, solvent TPGS, estimated by diluting the mixture in water 1/100 and then assaying the dilution, read-out: Solubility) was 7000 µg/mL, the solubility ([1]; benzyl acetate, organic solvent or mixture, thermodynamic from solid, solvent Benzyl acetate, room temperature, >24 hours, read-out: Solubility) was 400 µg/mL and the solubility ([1]; benzyl alcohol, organic solvent or mixture, thermodynamic from solid, solvent Benzyl alcohol, room temperature, >24 hours, read-out: Solubility) was 48000 µg/mL. It also gave a solubility ([1]; canola oil, oil or lipid, thermodynamic from solid, solvent Canola oil, room temperature, >24 hours, read-out: Solubility) of 10 µg/mL, a solubility ([1]; castor oil, oil or lipid, thermodynamic from solid, solvent Castor oil, room temperature, >24 hours, read-out: Solubility) of 200 µg/mL and a solubility ([1]; clove oil, oil or lipid, thermodynamic from solid, solvent Clove oil, room temperature, >24 hours, read-out: Solubility) of 6700 µg/mL. It also gave a solubility ([1]; corn oil, oil or lipid, thermodynamic from solid, solvent Corn oil, room temperature, >24 hours, read-out: Solubility) of 10 µg/mL, a solubility ([1]; dichloromethane, organic solvent or mixture, thermodynamic from solid, solvent Dichloromethane, room temperature, >24 hours, read-out: Solubility) of 400 µg/mL and a solubility ([1]; ethyl acetate, organic solvent or mixture, thermodynamic from solid, solvent Ethyl acetate, room temperature, >24 hours, read-out: Solubility) of 50 µg/mL. The solubility ([1]; peanut oil, oil or lipid, thermodynamic from solid, solvent Peanut oil, room temperature, >24 hours, read-out: Solubility) was 10 µg/mL, the solubility ([1]; sesame oil, oil or lipid, thermodynamic from solid, solvent Sesame oil, room temperature, >24 hours, read-out: Solubility) was 30 µg/mL and the solubility ([1]; solvent Acetic acid, room temperature, >24 hours, HCl) was 3000 µg/mL. It also gave a solubility ([1]; solvent Acetone, room temperature, >24 hours, HCl) of 200 µg/mL, a solubility ([1]; solvent DMA, room temperature, >24 hours, HCl) of 13000 µg/mL and a solubility ([1]; solvent DMSO, room temperature, >24 hours, HCl) of 18000 µg/mL. For the same compound, the solubility ([1]; solvent Glycerin, room temperature, >24 hours, HCl) was 4000 µg/mL, the solubility ([1]; solvent Labrasol, room temperature, >24 hours, HCl) was 3000 µg/mL and the solubility ([1]; solvent Methanol, room temperature, >24 hours, HCl) was 3000 µg/mL. It also gave a solubility ([1]; solvent NMP, room temperature, >24 hours, HCl) of 40000 to 80000 µg/mL, a solubility ([1]; solvent PEG400, room temperature, >24 hours, HCl) of 2000 µg/mL and a solubility ([1]; solvent Phosal 50 PG, room temperature, >24 hours, HCl) of 15000 µg/mL. For the same compound, the solubility ([1]; solvent Propylene glycol, room temperature, >24 hours, HCl) was 4000 µg/mL, the solubility ([1]; solvent Triacetin, room temperature, >24 hours, HCl) was 800 µg/mL and the solubility ([1]; solvent Tween 20, room temperature, >24 hours, HCl) was 17000 µg/mL. It also gave a solubility ([1]; solvent Tween 80, room temperature, >24 hours, HCl) of 4500 µg/mL, a solubility ([1]; tocopherol, oil or lipid, thermodynamic from solid, solvent Tocopherol, room temperature, >24 hours, read-out: Solubility) of 800 µg/mL and an MP470 solubility enhancement [2] of ~10 fold.
